The source of these data is patent US11066414B2, “Cot modulators and methods of use thereof” (Gilead Sciences, Inc., priority 2015, dated 2021).

Like-named read-outs stand apart in the source and are kept apart here.

The target in one test is Human Cot (Homo sapiens (Human), UniProt P41279). Description: High Throughput Cot Biochemical Assay. Conditions: Cot HTRF (TR-FRET) biochemical assay.
Another test relates to TNFα. Nature of the test: Cot Monocyte TNFα Cell Based Assay.
Where [1] appears, read: Homo sapiens, Monocyte, read-out: EC50 TNF, LPS-stimulated human monocytes, TNFα.
[2] abbreviates: read-out: EC50 TNF, LPS-stimulated human monocytes, TNFα.

Chain of Human Cot (P41279 30-397): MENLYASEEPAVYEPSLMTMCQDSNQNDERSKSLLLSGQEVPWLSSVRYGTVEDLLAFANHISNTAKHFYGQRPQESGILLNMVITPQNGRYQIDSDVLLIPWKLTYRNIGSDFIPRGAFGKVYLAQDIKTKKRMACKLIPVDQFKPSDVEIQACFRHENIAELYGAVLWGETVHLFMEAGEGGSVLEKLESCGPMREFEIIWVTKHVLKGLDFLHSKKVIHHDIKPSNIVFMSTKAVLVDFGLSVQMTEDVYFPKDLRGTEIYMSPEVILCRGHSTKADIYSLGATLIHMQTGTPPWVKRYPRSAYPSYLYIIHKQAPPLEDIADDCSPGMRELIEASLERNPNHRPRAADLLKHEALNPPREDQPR

As for `Cc1ncccc1[C@H](Nc1cc(Cl)c2ncc(C#N)c(Nc3cccc(Cl)c3)c2c1)c1cn(C2CCN(C(C)(C)C)CC2)nn1` [Example 226, (S)-6-(((1-(1-(tert-butyl)piperidin-4-yl)-1H-1,2,3-triazol-4-yl)(2-methylpyridin-3-yl)methyl)amino)-8-chloro-4-((3-chlorophenyl)amino)quinoline-3-carbonitrile], inhibition against Human Cot (IC50 HTRF) was half-maximal at 8 nM (IC50). For the same compound, the EC50 in the test on TNFα (setting [1]) came to 880 nM.

In turn, `Cc1ncccc1[C@H](Nc1cc(Cl)c2ncc(C#N)c(Nc3ccc(Cl)c(Cl)c3F)c2c1)c1c[nH]nn1` [Example 227, (S)-8-chloro-4-((3,4-dichloro-2-fluorophenyl)amino)-6-(((2-methylpyridin-3-yl)(1H-1,2,3-triazol-4-yl)methyl)amino)-quinoline-3-carbonitrile] gave an IC50 against Human Cot (IC50 HTRF) of 44 nM. Also, the EC50 in the test on TNFα (setting [1]) stood at 6420 nM.

`Cc1cncc([C@H](Nc2cc(Cl)c3ncc(C#N)c(Nc4ccc(F)c(Cl)c4)c3c2)c2cn(C(C)C)nn2)c1` [Example 228, (S)-8-chloro-4-((3-chloro-4-fluorophenyl)amino)-6-(((1-isopropyl-1H-1,2,3-triazol-4-yl)(5-methylpyridin-3-yl)methyl)amino)quinoline-3-carbonitrile] registered a half-inhibitory concentration (IC50) against Human Cot (IC50 HTRF) of 18 nM. Also, the EC50 in the test on TNFα (setting [1]) amounted to 2310 nM.

In turn, `Cc1ncccc1[C@H](Nc1cc(Cl)c2ncc(C#N)c(N[C@H](C)c3ccccc3)c2c1)c1cn(C(C)C)nn1` [Example 230, 8-chloro-6-(((S)-(1-isopropyl-1H-1,2,3-triazol-4-yl)(2-methylpyridin-3-yl)methyl)amino)-4-(((R)-1-phenylethyl)amino)quinoline-3-carbonitrile] displayed an IC50 on Human Cot (IC50 HTRF) of 9 nM. Besides, in the test on TNFα (setting [1]), the EC50 was determined as 252 nM.

Consider `Cc1ncccc1[C@H](Nc1cc(Cl)c2ncc(C#N)c(Nc3ccc(Cl)c(Cl)c3F)c2c1)c1cn(C2CCN(C(C)(C)C)CC2)nn1` [Example 233, (S)-6-(((1-(1-(tert-butyl)piperidin-4-yl)-1H-1,2,3-triazol-4-yl)(2-methylpyridin-3-yl)methyl)amino)-8-chloro-4-((3,4-dichloro-2-fluorophenyl)amino)quinoline-3-carbonitrile], for which, on Human Cot (IC50 HTRF), the IC50 amounted to 8 nM. Moreover, the concentration giving a half-maximal response (EC50) in the test with TNFα (setting [1]) is 114 nM.

For the compound `Cc1ncsc1[C@H](Nc1cc(Cl)c2ncc(C#N)c(Nc3ccc(Cl)c(Cl)c3F)c2c1)c1c[nH]nn1` [Example 234, (R)-8-chloro-4-((3,4-dichloro-2-fluorophenyl)amino)-6-(((4-methylthiazol-5-yl)(1H-1,2,3-triazol-4-yl)methyl)amino)quinoline-3-carbonitrile], the IC50 against Human Cot (IC50 HTRF) amounted to 21 nM. Also, the EC50 in the test on TNFα (setting [1]) is 504 nM.

The compound `Cc1ncsc1[C@H](Nc1cc(Cl)c2ncc(C#N)c(Nc3ccc(Cl)c(Cl)c3F)c2c1)c1cn(C(C)C)nn1` [Example 235, (R)-8-chloro-4-((3,4-dichloro-2-fluorophenyl)amino)-6-(((1-isopropyl-1H-1,2,3-triazol-4-yl)(4-methylthiazol-5-yl)methyl)amino)quinoline-3-carbonitrile] had an IC50 on Human Cot (IC50 HTRF) of 17 nM. Besides, in the test with TNFα (setting [1]), the EC50 was determined as 370 nM.

Take `Cc1ncsc1[C@H](Nc1cc(Cl)c2ncc(C#N)c(Nc3ccc(Cl)c(Cl)c3F)c2c1)c1cn(C2CCN(C(C)(C)C)CC2)nn1` [Example 236, (R)-6-(((1-(1-(tert-butyl)piperidin-4-yl)-1H-1,2,3-triazol-4-yl)(4-methylthiazol-5-yl)methyl)amino)-8-chloro-4-((3,4-dichloro-2-fluorophenyl)amino)quinoline-3-carbonitrile]: on Human Cot (IC50 HTRF), half-maximal inhibition (IC50) required 9 nM. Also, the EC50 in the test with TNFα (setting [1]) was found to be 172 nM.

For `C[C@@H](Nc1c(C#N)cnc2c(Cl)cc(N[C@H](c3cn(C4CCN(C(C)(C)C)CC4)nn3)c3csc4c3CCN(C3COC3)C4)cc12)c1ccccc1` [Example 237], the IC50 on Human Cot (read-out: IC50 HTRF) was determined as 1 nM. The EC50 with TNFα (setting [2]) amounted to 29 nM.

Compound `C[C@@H](Nc1c(C#N)cnc2c(Cl)cc(N[C@H](c3c[nH]nn3)c3csc4c3CCN(C3COC3)C4)cc12)c1ccccc1` [Example 238, 8-chloro-6-(((S)-(6-(oxetan-3-yl)-4,5,6,7-tetrahydrothieno[2,3-c]pyridin-3-yl)(1H-1,2,3-triazol-4-yl)methyl)amino)-4-(((R)-1-phenylethyl)amino)quinoline-3-carbonitrile] registered an IC50 against Human Cot (IC50 HTRF) of 3 nM. In addition, the EC50 in the test on TNFα (setting [1]) was 901 nM.

`Cc1ncsc1[C@H](Nc1cc(Cl)c2ncc(C#N)c(N[C@H](C)c3ccccc3)c2c1)c1cn(C(C)C)nn1` [Example 239, 8-chloro-6-(((R)-(1-isopropyl-1H-1,2,3-triazol-4-yl)(4-methylthiazol-5-yl)methyl)amino)-4-(((R)-1-phenylethyl)amino)quinoline-3-carbonitrile] showed an IC50 on Human Cot (IC50 HTRF) of 16 nM. For the same compound, in the test with TNFα (setting [1]), the EC50 was 928 nM.

With `Cc1ncsc1[C@H](Nc1cc(Cl)c2ncc(C#N)c(N[C@H](C)c3ccccc3)c2c1)c1cn(C2CCN(C(C)(C)C)CC2)nn1` [Example 240, 6-(((R)-(1-(1-(tert-butyl)piperidin-4-yl)-1H-1,2,3-triazol-4-yl)(4-methylthiazol-5-yl)methyl)amino)-8-chloro-4-(((R)-1-phenylethyl)amino)quinoline-3-carbonitrile], on Human Cot (IC50 HTRF), the IC50 amounted to 16 nM. For the same compound, the EC50 with TNFα (setting [1]) turned out to be 631 nM.

With `CC(C)(C)N1CCC(n2cc([C@@H](Nc3cc(Cl)c4ncc(C#N)c(Nc5cccc(Cl)c5F)c4c3)c3csc4c3CCN(C3COC3)C4)nn2)CC1` [Example 241, (S)-6-(((1-(1-(tert-butyl)piperidin-4-yl)-1H-1,2,3-triazol-4-yl)(6-(oxetan-3-yl)-4,5,6,7-tetrahydrothieno[2,3-c]pyridin-3-yl)methyl)amino)-8-chloro-4-((3-chloro-2-fluorophenyl)amino)-quinoline-3-carbonitrile], the IC50 against Human Cot (IC50 HTRF) is 2 nM. Also, the EC50 in the test on TNFα (setting [1]) came out at 32 nM.

Regarding `N#Cc1cnc2c(Cl)cc(N[C@@H](c3cocn3)c3cn(C4CCN(C5COC5)CC4)nn3)cc2c1Nc1ccc(Cl)c(Cl)c1F` [Example 242, (S)-8-chloro-4-((3,4-dichloro-2-fluorophenyl)amino)-6-((o)(azol-4-yl(1-(1-(oxetan-3-yl)piperidin-4-yl)-1H-1,2,3-triazol-4-yl)methyl)amino)quinoline-3-carbonitrile], the IC50 at Human Cot (read-out: IC50 HTRF) was 143 nM. The EC50 in the test on TNFα (setting [2]) was found to be 5800 nM.

Consider `Cc1ncsc1[C@H](Nc1cc(Cl)c2ncc(C#N)c(N[C@H](C)c3ccccc3)c2c1)c1c[nH]nn1` [Example 243, 8-chloro-6-(((R)-(4-methylthiazol-5-yl)(1H-1,2,3-triazol-4-yl)methyl)amino)-4-(((R)-1-phenylethyl)amino)quinoline-3-carbonitrile], for which, on Human Cot (IC50 HTRF), it took 41 nM to reach half-maximal inhibition (IC50). Moreover, the EC50 in the test on TNFα (setting [1]) came to 9490 nM.

In the case of `CC(C)n1cc([C@@H](Nc2cc(Cl)c3ncc(C#N)c(Nc4ccc(F)c(Cl)c4)c3c2)C2=CCOCC2)nn1` [Example 244, (S)-8-chloro-4-((3-chloro-4-fluorophenyl)amino)-6-(((3,6-dihydro-2H-pyran-4-yl)(1-isopropyl-1H-1,2,3-triazol-4-yl)methyl)amino)quinoline-3-carbonitrile], the IC50 against Human Cot (IC50 HTRF) was 4 nM. In the test on TNFα (setting [1]), the half-maximal effective concentration (EC50) amounted to 328 nM.

The compound `Cc1ncccc1[C@H](Nc1cc(Cl)c2ncc(C#N)c(Nc3cccc(Cl)c3F)c2c1)c1cn(C(C)C)nn1` [Example 245, (S)-8-chloro-4-((3-chloro-2-fluorophenyl)amino)-6-(((1-isopropyl-1H-1,2,3-triazol-4-yl)(2-methylpyridin-3-yl)methyl)amino)quinoline-3-carbonitrile] returned an IC50 on Human Cot (IC50 HTRF) of 2 nM. Moreover, the EC50 in the test on TNFα (setting [1]) turned out to be 125 nM.

The compound `N#Cc1cnc2c(Cl)cc(N[C@H](c3c[nH]nn3)c3csc4c3CCN(C3COC3)C4)cc2c1Nc1cccc(Cl)c1F` [Example 246, (S)-8-chloro-4-((3-chloro-2-fluorophenyl)amino)-6-(((6-(oxetan-3-yl)-4,5,6,7-tetrahydrothieno[2,3-c]pyridin-3-yl)(1H-1,2,3-triazol-4-yl)methyl)amino)quinoline-3-carbonitrile] displayed an IC50 at Human Cot (IC50 HTRF) of 6 nM. In addition, the EC50 in the test on TNFα (setting [1]) stood at 652 nM.

On to `Cc1ncccc1[C@H](Nc1cc(Cl)c2ncc(C#N)c(Nc3cccc(Cl)c3F)c2c1)c1cn(C2CCN(C(C)(C)C)CC2)nn1` [Example 247, (S)-6-(((1-(1-(tert-butyl)piperidin-4-yl)-1H-1,2,3-triazol-4-yl)(2-methylpyridin-3-yl)methyl)amino)-8-chloro-4-((3-chloro-2-fluorophenyl)amino)quinoline-3-carbonitrile], for which the IC50 at Human Cot (read-out: IC50 HTRF) was 2 nM. In the test on TNFα (setting [1]), the EC50 came to 102 nM.

At Human Cot (IC50 HTRF), `Cc1ncccc1[C@H](Nc1cc(Cl)c2ncc(C#N)c(Nc3cccc(Cl)c3F)c2c1)c1c[nH]nn1` [Example 248, (S)-8-chloro-4-((3-chloro-2-fluorophenyl)amino)-6-(((2-methylpyridin-3-yl)(1H-1,2,3-triazol-4-yl)methyl)amino)-quinoline-3-carbonitrile] registered a concentration for half-maximal inhibition (IC50) of 4 nM. For the same compound, the EC50 in the test with TNFα (setting [1]) came to 398 nM.

In the case of `Cc1cncc([C@H](Nc2cc(Cl)c3ncc(C#N)c(Nc4ccc(F)c(Cl)c4)c3c2)c2cn(C3CCN(C(C)(C)C)CC3)nn2)c1` [Example 250, (S)-6-(((1-(1-(tert-butyl)piperidin-4-yl)-1H-1,2,3-triazol-4-yl)(5-methylpyridin-3-yl)methyl)amino)-8-chloro-4-((3-chloro-4-fluorophenyl)amino)quinoline-3-carbonitrile], half-maximal inhibition on Human Cot (IC50 HTRF) (IC50) required 5 nM. In addition, in the test on TNFα (setting [1]), the EC50 is 127 nM.

On to `Cc1ncsc1[C@H](Nc1cc(Cl)c2ncc(C#N)c(Nc3cccc(Cl)c3F)c2c1)c1c[nH]nn1` [Example 251, (R)-8-chloro-4-((3-chloro-2-fluorophenyl)amino)-6-(((4-methylthiazol-5-yl)(1H-1,2,3-triazol-4-yl)methyl)amino)quinoline-3-carbonitrile], for which the IC50 on Human Cot (IC50 HTRF) was 5 nM. The half-maximal effective concentration (EC50) in the test on TNFα (setting [1]) stood at 347 nM.
